Results on 2 compounds are retold here after paper PMC10244465, “Native American ataxia medicines rescue ataxia-linked mutant potassium channel activity via binding to the voltage sensing domain” (Nature Communications, 2023).

Holding throughout (assay type): cell-based
The target of one assay is T1, Kv1.1-L155P channels (Homo sapiens, UniProt Q09470, L155P).
T1 construct: expressed in transfected cells; host or cells: Xenopus laevis oocytes
The assay can be described thus: TEVC of oocytes expressing 100% Kv1.1-L155P. The note with it: compound 1 µM.

The next assay has as its target T2, Kv1.1-G311D channels (Homo sapiens, UniProt Q09470, G311D).
T2 construct: expressed in transfected cells; host or cells: Xenopus laevis oocytes
The assay can be described thus: TEVC of oocytes expressing 100% Kv1.1-G311D. The note with it: compound 1 µM. An excerpt: (§1) EA1 mutant G311D is in the S4-5 linker of Kv1.1 (Fig. 5a) and produces a 65% prepulse current reduction both in Kv1.1-G311D and in Kv1.1/Kv1.1-G311D channels[43],[44]; either channel type was minimally responsive to the plant extracts tested (Supplementary Figs. 3 and 4). EA1 mutant L328V (which is associated with tetany and hypomagnesemia) is located in the intracellular end of Kv1.1 S5 (Fig. 5a) and results in complete current loss in a dominant negative manner, i.e., Kv1.1-L328V and Kv1.1/Kv1.1-L328V channels are each nonfunctional. The traditional ataxia remedy plant extracts were unable to rescue Kv1.1-L328V or Kv1.1/Kv1.1-L328V function (Supplementary Figs. 5 and 6). EA1 mutant V408A is in the intracellular-proximal end of Kv1.1 S6 (Fig. 5a) and reduces current, speeds deactivation, and increases C-type inactivation of Kv1.1[46]. Here, Native American ataxia remedy extracts had relatively minor effects on Kv1.1-V408A activity, with nettle and Pacific ninebark (roots or leaves) inducing hyperpolarizing shifts in EM, and Pacific ninebark leaves inducing a negative shift in the voltage dependence of activation, although this was not quantifiable due to the very small tail currents (Supplementary Fig. 7). Effects of the extracts on Kv1.1/Kv1.1-V408A activity were also relatively minor (Supplementary Fig. 8). […]

The target of the next assay is T3, Kv1.1-E283K channels (Homo sapiens, UniProt Q09470, E283K).
T3 construct: expressed in transfected cells; host or cells: Xenopus laevis oocytes
T3 sequence (Q09470 whole entry E283K): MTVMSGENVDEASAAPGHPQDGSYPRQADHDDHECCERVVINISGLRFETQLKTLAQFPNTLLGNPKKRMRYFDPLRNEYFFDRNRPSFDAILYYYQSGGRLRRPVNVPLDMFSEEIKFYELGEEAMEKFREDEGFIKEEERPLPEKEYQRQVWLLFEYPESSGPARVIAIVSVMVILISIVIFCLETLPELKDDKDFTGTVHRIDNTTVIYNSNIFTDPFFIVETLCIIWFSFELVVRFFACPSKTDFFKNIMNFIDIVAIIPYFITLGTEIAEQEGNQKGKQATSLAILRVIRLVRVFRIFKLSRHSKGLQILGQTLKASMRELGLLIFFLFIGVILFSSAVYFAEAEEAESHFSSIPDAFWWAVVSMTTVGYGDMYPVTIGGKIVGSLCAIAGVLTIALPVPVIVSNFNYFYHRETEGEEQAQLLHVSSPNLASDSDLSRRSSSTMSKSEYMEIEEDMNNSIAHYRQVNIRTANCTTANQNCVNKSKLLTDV
The assay can be described thus: TEVC of oocytes injected with 100% Kv1.1-E283K cRNA. The note with it: for EC50: biphasic dose response.

The next assay has as its target T4, Kv1.1-L328V channels (Homo sapiens, UniProt Q09470, L328V).
T4 construct: expressed in transfected cells; host or cells: Xenopus laevis oocytes
Description: TEVC of oocytes expressing 100% Kv1.1-L328V. The note with it: compound 1 µM.
Source text: as §1
(§2) We performed TEVC at room temperature using an OC-725C amplifier (Warner Instruments, Hamden, CT) and pClamp10 software (Molecular Devices, Sunnyvale, CA) 2 days after cRNA injection as described in the section above. […] We recorded currents in response to voltage pulses between −80 mV and +40 mV at 10 or 20 mV intervals from a holding potential of −80 mV, to yield current-voltage relationships and examine activation kinetics. To calculate the voltage dependence of activation (V0.5), tail currents were recorded at a voltage pulse of −50 mV immediately following prepulse voltages between −80 mV and +40 mV. We analyzed data using Clampfit (Molecular Devices) and Graphpad Prism software (GraphPad, San Diego, CA, USA), stating values as mean ± SEM. […]

Assay [1] has as its target T5, Kv1.1/Kv1.1-L328V channels (Homo sapiens, UniProt Q09470, L328V).
T5 construct: expressed in transfected cells; host or cells: Xenopus laevis oocytes co-injected with 50/50 wild-type/mutant cRNA
The assay can be described thus: TEVC of oocytes co-injected with 50/50 wild-type/L328V Kv1.1 cRNA. The note with it: for effect on channel activity: compound 1 µM. How it is done:
We next tested effects on channels generated by co-injection of 50/50 wild-type/mutant Kv1.1 cRNA. Strikingly, gallic acid (1 µM) was able to hyperpolarize (by −15.5 ± 0.5 mV; n = 4; P < 0.0001) the V0.5 act of Kv1.1/Kv1.1-E283K channels, restoring voltage dependence typical of wild-type Kv1.1 (Fig. 7a–c), also inducing a −14 ± 0.7 mV hyperpolarization (n = 4; P = 0.0005) in EM of oocytes expressing Kv1.1/Kv1.1-E283K (Fig. 7d). […] Because of this hint at activity improvement in L155P channels we also applied higher concentrations (10 and 100 µM) of gallic acid, which produced a more robust (−12.5 ± 0.6 mV and −14.1 ± 0.6 mV, respectively) hyperpolarization of Kv1.1/Kv1.1-L155P V0.5 act (Fig. 8b, c) and hyperpolarized EM by −14.0 ± 0.6 mV and −15.2 ± 0.7 mV, respectively (Fig. 8d).
Wild-type and mutant Kv1 cDNAs were generated (Genscript, Piscataway, NJ) in the pTLNx expression vector. As previously described, we generated cRNA transcripts encoding human Kv1.1 (wild-type and mutant) and Kv1.2, by in vitro transcription using the mMessage mMachine kit (Thermo Fisher Scientific), after vector linearization, from cDNA sub-cloned into plasmids (pTLNx) incorporating Xenopus laevis β-globin 5’ and 3’ UTRs flanking the coding region to enhance translation and cRNA stability. […]
as §2

[2] abbreviates: -20 mV, Figure 6 table, head 1 µM Tannic acid, footnote bladderwrack kelp.

Where two headings read alike, the source gives them in different places.

T5 sequence (Q09470 whole entry, stated change not applied): as the sequence (Q09470 whole entry E283K) above, with K283E counted along it
T5 sequence (Q09470 whole entry L328V): as the sequence (Q09470 whole entry E283K) above, with K283E, L328V counted along it
T4 sequence (Q09470 whole entry L328V): as the sequence (Q09470 whole entry E283K) above, with K283E, L328V counted along it
T2 sequence (Q09470 whole entry G311D): as the sequence (Q09470 whole entry E283K) above, with K283E, G311D counted along it
T1 sequence (Q09470 whole entry L155P): as the sequence (Q09470 whole entry E283K) above, with L155P, K283E counted along it
Description for Kv1.1-E283K channels: We injected defolliculated stage V and VI Xenopus laevis oocytes (Xenoocyte, Dexter, MI, US) with Kv1 cRNAs (1–5 ng). We incubated the oocytes at 16 °C in ND96 oocyte storage solution containing penicillin and streptomycin, with daily washing, for 2 days prior to two-electrode voltage-clamp (TEVC) recording.
We performed TEVC at room temperature using an OC-725C amplifier (Warner Instruments, Hamden, CT) and pClamp10 software (Molecular Devices, Sunnyvale, CA) 2 days after cRNA injection as described in the section above. For recording, oocytes we placed in a small-volume oocyte bath (Warner) and viewed with a dissection microscope. We sourced chemicals from Sigma. We studied effects of plant extracts and of compounds, solubilized directly in bath solution (in mM): 96 NaCl, 4 KCl, 1 MgCl2, 1 CaCl2, 10 HEPES (pH 7.6). We introduced extracts or compounds into the oocyte recording bath by gravity perfusion at a constant flow of 1 ml per minute for 3 min prior to recording. Pipettes were of 1–2 MΩ resistance when filled with 3 M KCl. We recorded currents in response to voltage pulses between −80 mV and +40 mV at 10 or 20 mV intervals from a holding potential of −80 mV, to yield current-voltage relationships and examine activation kinetics. To calculate the voltage dependence of activation (V0.5), tail currents were recorded at a voltage pulse of −50 mV immediately following prepulse voltages between −80 mV and +40 mV. We analyzed data using Clampfit (Molecular Devices) and Graphpad Prism software (GraphPad, San Diego, CA, USA), stating values as mean ± SEM. We plotted raw or normalized tail currents vs. prepulse voltage and fitted with a single Boltzmann function:1 g=(A1−A2)/1+exp[V1/2−V/Vs]y+A2 where g is the normalized tail conductance, A1 is the initial value at -∞, A2 is the final value at +∞, V1/2 is the half-maximal voltage of activation and Vs the slope factor.
Source text for Kv1.1-L155P channels: As previously described[24], we generated cRNA transcripts encoding human Kv1.1 (wild-type and mutant) and Kv1.2, by in vitro transcription using the mMessage mMachine kit (Thermo Fisher Scientific), after vector linearization, from cDNA sub-cloned into plasmids (pTLNx) incorporating Xenopus laevis β-globin 5’ and 3’ UTRs flanking the coding region to enhance translation and cRNA stability. We injected defolliculated stage V and VI Xenopus laevis oocytes (Xenoocyte, Dexter, MI, US) with Kv1 cRNAs (1–5 ng). […]

Regarding `O=C(O)c1cc(O)c(O)c(O)c1` [gallic acid], the “effect on channel activity” value is given as “ineffective at rescuing activity” on Kv1.1-L155P channels; “ineffective at rescuing activity” at Kv1.1-G311D channels; “only very minor functional improvements” at Kv1.1-E283K channels (compound 1 µM); “ineffective at rescuing activity” on Kv1.1-L328V channels; “negligible” in assay [1]. Moreover, the EM in assay [1] (in presence of 1 µM compound) was -33.00 ± 1.09 mV.
Consider tannic acid, for which the “effect on channel activity” value at Kv1.1-L155P channels is given as “did not alter”; at Kv1.1-G311D channels, “did not alter”; at Kv1.1-L328V channels it was “does not rescue”; in assay [1] it was “minimal”. The TauAct at Kv1.1-E283K channels (0 mV, 1 µM, Figure 9 table) is 15.70 ± 1.40 ms; on Kv1.1-E283K channels (0 mV, Figure 6 table, head 1 µM Tannic acid, footnote bladderwrack kelp), 21.12 ± 4.35 ms; on Kv1.1-E283K channels (+10 mV, 1 µM, Figure 9 table), 12.94 ± 1.05 ms; at Kv1.1-E283K channels (+10 mV, Figure 6 table, head 1 µM Tannic acid, footnote bladderwrack kelp), 17.43 ± 3.97 ms; at Kv1.1-E283K channels (+20 mV, 1 µM, Figure 9 table), 11.30 ± 0.89 ms; on Kv1.1-E283K channels (+20 mV, Figure 6 table, head 1 µM Tannic acid, footnote bladderwrack kelp) it was 12.72 ± 2.85 ms. The TauAct at Kv1.1-E283K channels (+30 mV, 1 µM, Figure 9 table) worked out at 10.16 ± 0.83 ms; at Kv1.1-E283K channels (+30 mV, Figure 6 table, head 1 µM Tannic acid, footnote bladderwrack kelp), 10.63 ± 2.79 ms; at Kv1.1-E283K channels (+40 mV, 1 µM, Figure 9 table) it was 9.46 ± 0.83 ms; on Kv1.1-E283K channels (+40 mV, Figure 6 table, head 1 µM Tannic acid, footnote bladderwrack kelp), 10.04 ± 2.65 ms; on Kv1.1-E283K channels (-10 mV, 1 µM, Figure 9 table), 20.71 ± 2.35 ms; at Kv1.1-E283K channels (-10 mV, Figure 6 table, head 1 µM Tannic acid, footnote bladderwrack kelp) it was 27.06 ± 7.08 ms. The TauAct amounted to 31.31 ± 2.98 ms at Kv1.1-E283K channels (-20 mV, 1 µM, Figure 9 table) and 41.32 ± 8.47 ms at Kv1.1-E283K channels (setting [2]). Further, the “Peak current at -40 mV” value was determined as 0.02 ± 0.01 µA at Kv1.1-E283K channels (0.1 µM); 0.02 ± 0.01 µA on Kv1.1-E283K channels (1 µM); 0.02 ± 0.01 µA at Kv1.1-E283K channels (10 µM); 0.02 ± 0.01 µA at Kv1.1-E283K channels (30 µM); 0.03 ± 0.01 µA on Kv1.1-E283K channels (100 µM). For the same compound, the “shift in the EM” value at Kv1.1-E283K channels (1 µM) is recorded as around −20 mV. For the same compound, the “shift of V0.5 activation” value at Kv1.1-E283K channels (1 µM) is reported as −13 ± 0.26 mV. Besides, the “Current-fold change -30 mV” value at Kv1.1-E283K channels (1 µM compound) amounted to 4.69 ± 1.69. The same compound registered an increase of activity on Kv1.1-E283K channels (1 µM, at −40 to −20 mV) of at most 20 fold. For the same compound, the TauDeact was 0.87 ± 0.36 ms on Kv1.1-E283K channels (setting [2]); 0.79 ± 0.32 ms on Kv1.1-E283K channels (-30 mV, Figure 6 table, head 1 µM Tannic acid, footnote bladderwrack kelp); 0.88 ± 0.36 ms at Kv1.1-E283K channels (-40 mV, Figure 6 table, head 1 µM Tannic acid, footnote bladderwrack kelp); 1.04 ± 0.44 ms at Kv1.1-E283K channels (-50 mV, Figure 6 table, head 1 µM Tannic acid, footnote bladderwrack kelp); 1.23 ± 0.52 ms on Kv1.1-E283K channels (-60 mV, Figure 6 table, head 1 µM Tannic acid, footnote bladderwrack kelp); 1.38 ± 0.56 ms at Kv1.1-E283K channels (-70 mV, Figure 6 table, head 1 µM Tannic acid, footnote bladderwrack kelp). At Kv1.1-E283K channels (-80 mV, Figure 6 table, head 1 µM Tannic acid, footnote bladderwrack kelp), this compound returned a TauDeact of 1.50 ± 0.57 ms. Moreover, the EC50 on Kv1.1-E283K channels (read-out: EC50 for effects on EM, first component) turned out to be 1.1 ± 0.9 nM; at Kv1.1-E283K channels (read-out: EC50 for effects on EM, second component), 10000 ± 400 nM; on Kv1.1-E283K channels (from the increase in relative tail current at −40 mV, read-out: EC50, higher sensitivity component) it was 3.7 ± 2.6 nM. Besides, on Kv1.1-E283K channels (in presence of 1 µM compound), the EM was -44.83 ± 0.14 mV. Also, the Slope on Kv1.1-E283K channels (in presence of 1 µM compound) was determined as 8.70 ± 1.19 mV. In addition, the “V0.5 Normalized tail current” value on Kv1.1-E283K channels (in presence of 1 µM compound) was -22.75 ± 1.34 mV.
